We go through one substance from US8936941B2, “Compositions useful for cancer detection and treatment, a cancer stem cell model, and methods of production and use thereof” (priority 2008, dated 2015).

For series [1], the system named is let-7a miRNA. Briefly: pLet7a-Luc luciferase reporter gene assay in HCT116 cells. It is filed as cell-based, human. The settings on record: normalized to Renilla luciferase. The procedure: (§1) Luciferase reporter gene assay. pLet7a-Luc reporter vector contains a let-7a miRNA specific binding site at the 3′UTR of the firefly (Photinus pyralis) luciferase gene obtained from Signosis Inc (FIG. 26). HCT116 and SW480 cells were transfected with the pLet7a-Luc reporter vector, Renilla luciferase expressing plasmid pRL-TK (Promega) along with DCAMKL-1 or scrambled siRNA using Transfectol™ (Ambion Inc.). Luciferase activity was determined as per the manufacturer's instructions (Dual-Luciferase Reporter Assay System; Promega) using a Monolight 2010 luminometer (Analytical Luminescence Laboratory, San Diego, Calif.) as described earlier [Stadler et al., 2008; Sossey-Alaoui et al., 1999]. The activity, normalized to Renilla Luciferase activity, is presented as relative luciferase units relative to control with ±SEM values. Assays were performed in triplicate wells and experiments were repeated 3 times.

Series [2] concerns let-7a miRNA. In words: pLet7a-Luc luciferase reporter gene assay in SW480 cells. It is filed as cell-based, human. The settings on record: normalized to Renilla luciferase. The procedure: as §1
In series [3] the test system is DCAMKL-1. In words: siRNA knockdown of DCAMKL-1 in AsPC-1 pancreatic cancer cells, real-time RT-PCR. Format: cell-based, human. The settings on record: AsPC-1 cells. The procedure:
(§2) Cell Culture: AsPC-1 and BxPC3 human pancreatic adenocarcinoma cell lines were obtained from the American Type Culture Collection and grown in Dulbecco's modified Eagle medium (DMEM) supplemented with 10% fetal bovine serum and 100 U/mL penicillin-streptomycin in a humidified chamber at 37° C. with 5% CO2.
(§3) Silencer RNA: DCAMKL-1 small interfering RNA (siRNA) (si-DCAMKL-1) sequence targeting the coding region of DCAMKL-1 (accession No. NM_004734; SEQ ID NO:1) ([…]tt (SEQ ID NO:3)) and scrambled siRNAs (si-Scr) not matching any of the human genes were obtained (Ambion Inc, Austin, Tex.) and transfected using siPORT™ NeoFX™ (Ambion, Inc).
Real-time Reverse Transcription-Polymerase Chain Reaction Analyses: Total RNA isolated from human pancreatic cancer cells or cells sorted from normal mouse pancreas were subjected to reverse transcription with Superscript II RNase H-Reverse Transcriptase and random hexanucleotide primers (Invitrogen, Carlsbad, Calif.). The complementary DNA (cDNA) was subsequently used to perform real-time polymerase chain reaction (PCR) by SYBR chemistry (SYBR Green I; Molecular Probes, Eugene, Oreg.) for specific transcripts using gene specific primers and Jumpstart Taq DNA polymerase (Sigma—Aldrich, St. Louis, Mo.). […] The changes in mRNA were expressed as fold change relative to control with ±SEM value.
miRNA Analysis: total RNA isolated from human pancreatic cancer cell lines or cells sorted from normal mouse pancreas was subjected to reverse transcription with Superscript II RNase H-Reverse Transcriptase and random hexanucleotide primers (Invitrogen). The cDNA was subsequently used to perform real-time PCR by SYBR chemistry (SYBR Green I; Molecular Probes) for pri-let-7a, pri-miR-144 and pri-miR-200a transcripts using specific primers and Jumpstart Taq DNA polymerase (Sigma—Aldrich). […] The changes in pri-miRNA were expressed as fold change relative to control with ±SEM values.

For series [4], the system named is DCAMKL-1. In words: siRNA knockdown of DCAMKL-1 in BxPC3 pancreatic cancer cells, real-time RT-PCR. Format: cell-based, human. The procedure:
as §2, §3
Real-time Reverse Transcription-Polymerase Chain Reaction Analyses: Total RNA isolated from human pancreatic cancer cells or cells sorted from normal mouse pancreas were subjected to reverse transcription with Superscript II RNase H-Reverse Transcriptase and random hexanucleotide primers (Invitrogen, Carlsbad, Calif.). […] The changes in mRNA were expressed as fold change relative to control with ±SEM value.
miRNA Analysis: total RNA isolated from human pancreatic cancer cell lines or cells sorted from normal mouse pancreas was subjected to reverse transcription with Superscript II RNase H-Reverse Transcriptase and random hexanucleotide primers (Invitrogen). […] The changes in pri-miRNA were expressed as fold change relative to control with ±SEM values.

Series [5] has as its system let-7a miRNA. Briefly: pLet7a-Luc luciferase reporter gene assay in AsPC-1 cells. It is filed as cell-based, human. The text has this:
(§4) Luciferase Reporter Gene Assay: pLet7a-Luc reporter vector contains a let-7a miRNA specific binding site at the 3′ UTR of the firefly (Photinus pyralis) luciferase gene, pMiR-144-Luc reporter vector containing miR-144 miRNA specific binding site at the 3′UTR of the firefly luciferase gene and KRAS-Luc reporter vector containing specific binding sites for let-7 family members at the 3′UTR of the firefly luciferase gene were obtained from Signosis, Inc. (Sunnyvale, Calif.). Human pancreatic cancer cell lines were transfected with the pLet7a-Luc, pMiR-144-Luc and KRAS-Luc reporter vectors separately with Renilla luciferase expressing plasmid pRL-TK (Promega) along with DCAMKL-1, or scrambled siRNA-using siPORT™ NeoFX™ transfection reagent (Ambion, Inc.). Luciferase activity was determined as per the manufacturer's instructions (Dual Luciferase Reporter Assay System; Promega) using a BioTek Synergy HT (Winooski, Vt.) as described herein above. The activity, normalized to Renilla luciferase activity, is presented as relative luciferase units relative to control with ±SEM values. Assays were performed in triplicate wells, and experiments were repeated 3 times.

The subject of the next series is miR-144 miRNA. Briefly: pMiR-144-Luc luciferase reporter gene assay in AsPC-1 cells. It is filed as cell-based, human.
Description: as §4

The next series deals with PICSCs. In words: Growth and survival of PICSCs after drug treatment. Format: cell-based, mouse. The conditions noted are these: siRNA transfection, 10 nM. The procedure: The PICSCs cells were treated with 100 μM drug (suprapharmacological dose) for 48 hours, and their growth and survival were evaluated. […] Moreover, the in vitro testing strategies allows for a mechanistic study of such compounds.

Chain of DCAMKL-1 (O15075 other isoform, or with tags, fused parts or gaps): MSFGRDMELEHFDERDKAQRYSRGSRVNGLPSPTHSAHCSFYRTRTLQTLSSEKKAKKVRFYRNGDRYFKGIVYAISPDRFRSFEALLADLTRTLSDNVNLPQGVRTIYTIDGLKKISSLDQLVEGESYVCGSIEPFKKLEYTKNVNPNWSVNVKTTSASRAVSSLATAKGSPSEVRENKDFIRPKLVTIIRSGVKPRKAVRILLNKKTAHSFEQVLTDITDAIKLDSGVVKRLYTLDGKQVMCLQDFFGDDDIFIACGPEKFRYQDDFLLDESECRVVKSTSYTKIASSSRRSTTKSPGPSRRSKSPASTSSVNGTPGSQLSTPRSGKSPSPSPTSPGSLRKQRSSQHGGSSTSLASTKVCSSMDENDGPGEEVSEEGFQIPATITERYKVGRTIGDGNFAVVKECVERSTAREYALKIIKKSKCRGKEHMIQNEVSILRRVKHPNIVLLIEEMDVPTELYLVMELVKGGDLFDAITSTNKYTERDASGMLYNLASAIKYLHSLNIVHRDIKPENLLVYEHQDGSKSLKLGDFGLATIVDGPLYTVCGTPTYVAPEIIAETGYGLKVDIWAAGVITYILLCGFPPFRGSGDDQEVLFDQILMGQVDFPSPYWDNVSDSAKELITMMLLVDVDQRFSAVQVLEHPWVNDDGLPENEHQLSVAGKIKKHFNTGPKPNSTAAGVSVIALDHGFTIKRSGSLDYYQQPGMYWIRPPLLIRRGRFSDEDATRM

Consider “si-DCAMKL-1: siRNA targeting the coding region of DCAMKL-1 (NM_004734), sequence GGGAGUGAGAACAAUCUAC (SEQ ID NO:3) (chemistry not given here; listed as Homo sapiens)”, for which the “luciferase activity (let-7a binding site at 3' UTR)” value in the series on let-7a miRNA [1] is “dose dependent reduction”. In addition, the “luciferase activity (let-7a binding site at 3' UTR)” value in the series with let-7a miRNA [2] is “dose dependent reduction”. For the same substance, in the series with DCAMKL-1 [3], the E-cadherin expression entry is “upregulation”; the Notch-1 expression result is “significant and a dose dependent downregulation”; the “Slug mRNA expression” value is on record as “downregulation”; the “Snail mRNA expression” value is “downregulation”. In addition, in the series on DCAMKL-1 [3], the “Twist mRNA expression” value is recorded as “downregulation”; the ZEB1 expression result was “downregulation”; the ZEB2 expression entry is reported as “downregulation”; the c-Myc expression entry was “significant and a dose dependent downregulation”. For the same substance, in the series on DCAMKL-1 [3], the pri-miR-200a expression result is on record as “upregulation”. Further, in the series on DCAMKL-1 [3] (compared to control and siSCR), the “increase in pri-miR-144 miRNA expression” value is 2.5 fold and the “reduction of c-Myc mRNA expression” value stood at 50%. In the series with DCAMKL-1 [3] (compared to control or siSCR), the “reduction in KRAS mRNA expression” value came out at 45% and the “reduction in Notch-1 mRNA” value worked out at 50%. In the series on DCAMKL-1 [3] (compared to siSCR or untreated), the “DCAMKL-1 mRNA expression” value is on record as “decreases” and the DCAMKL-1 protein entry is “decreases”. For the same substance, the “induction of pri-let-7a miRNA” value in the series with DCAMKL-1 [3] (real-time RT-PCR) is listed as 3 fold. The “increase in pri-let-7a miRNA” value in the series with DCAMKL-1 [4] (compared to control and siSCR) is on record as 3 fold. The “Notch1 mRNA” value in the series with DCAMKL-1 [4] (compared to siSCR or control) was “significant decrease”. Besides, the “luciferase activity (let-7a binding site in 3' UTR)” value with let-7a miRNA [5] was “dose-dependent reduction”. Besides, the “luciferase activity (miR-144 binding site in 3' UTR)” value in the series with miR-144 miRNA is “dose-dependent reduction”. Also, in the series with PICSCs, the “neurite formation, cell growth and cell death of PICSCs” value is “inhibited neurite formation, suppressed cell growth and induced cell death”.
